Laboratory results published in patent US9632034B2, “Fluorogenic and chromogenic substrate” (LI-COR, Inc., priority 2015, dated 2017).
Each block holds one compound with its values, some of them ahead of it.

Assays:
[1] = target: T1, HRP-conjugated secondary antibody (Erk protein in C32 cell lysates) (Armoracia rusticana, UniProt P00433); assay: Western blot of Erk protein in C32 cell lysates, near-infrared chemifluorescence detection against chemiluminescent substrate; assay type: biochemical
T1 sequence (P00433 31-338): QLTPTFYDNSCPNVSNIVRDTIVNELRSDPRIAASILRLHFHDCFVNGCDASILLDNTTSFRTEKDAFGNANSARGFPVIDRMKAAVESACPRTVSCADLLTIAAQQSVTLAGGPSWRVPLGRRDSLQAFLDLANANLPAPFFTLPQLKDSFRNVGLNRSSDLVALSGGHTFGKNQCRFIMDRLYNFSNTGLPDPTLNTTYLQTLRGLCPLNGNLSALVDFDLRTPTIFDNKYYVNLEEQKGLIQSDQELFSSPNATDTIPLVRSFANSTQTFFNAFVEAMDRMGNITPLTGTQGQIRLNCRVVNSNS
Description: A series of tests were performed to determine the optimal concentration of PTA in the detection method. Western blot analysis was performed on cell lysates generated from the C32 cell line that expresses high levels of Erk protein. The lysates were processed according to standard western blotting protocols. Briefly, Erk protein was detected using a primary antibody against Erk (an anti-Erk monoclonal antibody) and an HRP-conjugated secondary antibody (goat anti-mouse IgG antibody). Different concentrations of the PTA substrate were compared by visualization of color formation and detection of protein bands. The limit of detection (LOD) was measured by chemifluorescence signal and compared to the LOD using Thermo Scientific™ SuperSignal™ West Femto Substrate. […] FIG. 5 illustrates the comparison and effect of PTA concentration on LOD of Erk protein in C32 cell lysates.
The exemplary formulation of the detection solution tested comprises two concentrated solutions: Solution A (a first part) and Solution B (a second part). […]
In this experiment Erk protein was detected in C32 cell lysates using a 1:1000 dilution of a monoclonal antibody directed to Erk. […] Near-infrared fluorescence from PTA treated blot was detected using the Odyssey® CLx system set at the 700 channel. Chemiluminescence from the control blot was detected using the Odyssey® Fc imaging system set at the chemiluminescence channel.

[2] = PTA solubility in water and in assay buffer with solubilizers (precipitate visualization, HPLC); assay type: physicochemical; settings: for Appearance of solution: PTA in assay buffer (Tris buffer, pH 9.5) with the named solubilizer at the w/v concentration printed in the table; for Appearance of PTA solution after overnight storage at room temperature: PTA in assay buffer (Tris buffer, pH 9.5) with the named solubilizer
Description: Next, the solvent system for phenothiazine (PTA) was tested. […] The solubility of PTA with polymers was tested by precipitate visualization and by HPLC of fresh and stored samples. Table 1 provides a comparison of polymers that include PTA solubility in an assay buffer, such as Tris buffer, pH 9.5.

[3] = target: T2, HRP-azine system (Armoracia rusticana, UniProt P00433); assay: Optimisation of formulation components (radical enhancer, nucleophilic reagent, oxidant) on western blot; assay type: biochemical; settings: for preferred concentration in working solution: by rate of visualization and/or number of colored bands on western blot, PTAS tested 2 to 30 mM, MORP 0 to 20 mM; for effect of oxidant on azine oxidization and formation of colored and fluorescent compounds: at certain concentrations, HRP-azine system
T2 sequence (P00433 31-338): T1 sequence (P00433 31-338)
Description: The optimal concentrations of the cation radical enhancer, nucleophilic reagent, solvent system and oxidant in the formulation were also tested. Water soluble azine, particularly 3-(10′-phenothiazinyl)propane-1-sulfonate (PTAS) was tested at various concentrations from 2 to 30 mM in a working solution. The effects were evaluated using the rate (speed) of visualization and the number of colored band on western blot. The preferred concentration of PTAS was 18 mM. Other water soluble and N-substituted PTA derivatives can also be used in place of PTAS or in combination thereof. The nucleophilic reagent serves as a co-substrate in the detection solution. The nucleophilic reagent can include five or six membered nitrogen heteroaromatic ring compounds. MORP at concentrations from 0 to 20 mM was tested in the formulation. Based on the number of colored bands detected, the preferred concentration was 15 mM MORP in the working solution.
Stable oxidants that are compatible with HRP-azine system are tested. Sodium perborate (NaBO3), Urea-H2O2 and stabilized H2O2 at certain concentrations accelerated azine oxidization and formation of colored and fluorescent compounds.

enhancement in sensitivity compared to SuperSignal West Femto Chemiluminescence Substrate ([1]; BLMB formulation with dextran sulfate, DMAP, HNA, citric buffer, NaBO3, final pH 5.0): 2˜4 fold
Compound: CN(C)c1ccc2c(c1)Sc1cc(N(C)C)ccc1N2C(=O)c1ccccc1 [BLMB]

Compound: c1ccc2c(c1)Nc1ccccc1S2 [PTA, 10H-phenothiazine]
Appearance of solution [2]: cloudy
Appearance of PTA solution after overnight storage at room temperature [2]: Precipitate,
PTA concentration given with appearance of PTA solution after overnight storage at room temperature ([2]; assay buffer, no solubilizer added): 0.15 µM
PTA concentration with the highest sensitivity in working solution ([1]; LOD of Erk protein by chemifluorescence at 700 nm, 0.65, 0.35, 0.15 mM PTA compared): 0.35 mM

Compound: O=S(=O)([O-])CCCN1c2ccccc2Sc2ccccc21.[Na+] [PTAS, sodium 3-(phenothiazine-10-yl)propane-1-sulfonate]
preferred concentration in working solution [3]: 18 mM

Compound: NC(N)=O.OO [Urea-H2O2, urea-hydrogen peroxide]
effect of oxidant on azine oxidization and formation of colored and fluorescent compounds [3]: accelerated

Compound: OO [stabilized H2O2, hydrogen peroxide]
effect of oxidant on azine oxidization and formation of colored and fluorescent compounds [3]: accelerated

Compound: OCCO [Ethylene Glycol (EG), Ethylene Glycol]
Appearance of solution [2]: cloudy
Appearance of PTA solution after overnight storage at room temperature [2]: Precipitation,
PTA concentration given with appearance of PTA solution after overnight storage at room temperature ([2]; PTA in assay buffer with the named solubilizer): 500 µM

effect of oxidant on azine oxidization and formation of colored and fluorescent compounds [3]: accelerated
Compound: Sodium perborate

preferred concentration in working solution [3]: 15 mM
Compound: c1cc(N2CCOCC2)ccn1 [MORP, 4-morpholinopyridine]
